Earlier results on one compound are cited in patent publication US20100119576A1, “USE OF ONE OR MORE OF THE ELEMENTS FROM THE GROUP YTTRIUM, NEODYMIUM AND ZIRCONIUM, AND PHARMACEUTICAL COMPOSITIONS WHICH CONTAIN THOSE ELEMENTS” (BIOTRONIK VI PATENT AG, priority 2002, published 2010).

This series deals with Klebsiella pneumoniae strain 204 and K9. The conditions noted are these: 142 mM Y(OH)3.

Molecules are shown by their SMILES.

Take `[OH-].[OH-].[OH-].[Y+3]` [Y(OH)3]: the “proliferation of K. pneumoniae” value is on record as “increased proliferation”.
